Measurements: patent US6835382B2, “Ii peptide therapeutics to enhance antigen presentation” (University of Massachusetts, priority 1996, dated 2004)
Positions of bridges follow the written chain, without caps; N, C: chain ends. Non-standard residues stand in square brackets, D forms with d. No end group written: not given here. hArg = N=C(N)NCCCC[C@H](N)C(=O)O; Cit = NC(=O)NCCC[C@H](N)C(=O)O

Biological target: T1, murine E^d MHC class II allele (Mus musculus, UniProt P01904+P01915)
T1 sequence (P01904 26-255): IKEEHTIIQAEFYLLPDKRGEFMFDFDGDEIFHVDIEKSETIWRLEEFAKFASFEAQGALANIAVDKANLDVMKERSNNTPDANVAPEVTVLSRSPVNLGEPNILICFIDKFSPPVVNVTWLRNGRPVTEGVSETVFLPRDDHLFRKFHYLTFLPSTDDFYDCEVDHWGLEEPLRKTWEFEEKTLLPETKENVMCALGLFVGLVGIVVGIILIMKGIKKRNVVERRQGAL
T1 sequence (P01915 27-264 limits assumed): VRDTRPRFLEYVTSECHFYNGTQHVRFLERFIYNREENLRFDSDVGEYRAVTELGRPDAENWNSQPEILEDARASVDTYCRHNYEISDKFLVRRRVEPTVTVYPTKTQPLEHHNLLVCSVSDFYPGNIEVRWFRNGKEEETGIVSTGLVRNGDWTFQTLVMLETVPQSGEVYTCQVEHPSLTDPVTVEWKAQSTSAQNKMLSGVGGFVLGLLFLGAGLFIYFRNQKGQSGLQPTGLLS
Assay: antigenic peptide prepulse assay, E^d allele (fixed APC prepulsed with HEL106-116)
Type: cell-based
Design: The A20 and CH27 B cell lymphoma lines express H-2^d and H-2^k alleles, respectively; endogenous in cells; host or cells: A20 B cell lymphoma (mitomycin C-treated or paraformaldehyde-fixed)
Settings: AE peptide 64 μM, prepulse 24 μM antigenic peptide; for Activity in antigenic peptide prepulse assay, E^d (baseline = 1.00): Table 25
Description: In a second type of assay, the “peptide prepulse assay”, the antigenic peptide is incubated with paraformaldehyde-fixed APC for 6 h. The APC are washed and incubated for 24 h with the AE101 series homolog and the T cell hybridoma specific for the antigenic peptide. After that incubation, an aliquot of the culture supernatant is transferred to a second culture to measure the relative degree of T hybridoma stimulation, as reflected in the effect of released interleukins on the growth of an interleukin-dependent, indicator cell line, as described above.
The two above described assays measure different aspects of the molecular mechanism of the AE101 series of peptides. In the “simultaneous assay”, AE101 series peptides are thought to induce the release of endogenously bound peptides and to permit the binding of the second, specific antigenic peptide which is relatively abundant in the culture fluid. The AE101 series peptides enhance antigenic peptide-specific T cell responses in simultaneous assays. In the “peptide prepulse” assay, the specific antigenic peptide becomes bound to MHC class II molecules on the surface of the fixed APC during the 6 h prepulse incubation. The effect of the AE101 series homologs is then thought to release that antigenic peptide, resulting in an apparent suppression of the immune response.
The AE101 series peptides are thought to contact the MHC class II molecules at a discrete site outside the antigenic peptide-binding groove. AE101 peptide binding to this “Ii-KEY” site is thought to induce a conformational change in the MHC class II molecules accelerating the dissociation of previously bound antigenic peptide. […] The AE101 series peptides thus inhibit antigenic peptide-specific T cell responses in the “peptide prepulse” assays.
Antigenic peptide-specific T cell activation was measured by the following procedure. Mitomycin C-treated A20 cells (A^dE^d) or CH27 cells APC (A^kE^k) were generated by incubating 5×10^6 cells/mL for 20 min at 37° C. with 0.025 mg/mL of mitomycin C (Sigma) in Dulbecco's Modified Eaglel's Medium (DMEM)/10 mM N-2(hydroxyethylpiperazine-N″[2-ethanesulfonic acid] (HEPES), followed by two washes with four volumes of DMEM-5% fetal calf serum (FCS), 10 mM HEPES. Fixed APC were generated by treating 1×10^6 cells/mL for 5 min with 0.5% paraformaldehyde in PBS (pH 7.2), followed by two washes with four volumes of DMEM-10% FCS, 10 mM HEPES. T cell hybridomas were irradiated 2200 rads before each assay.
The “peptide prepulse assay” was carried out under essentially the same conditions as described for the “simultaneous assay” with the following modifications. Fixed APC were first incubated for 6 h at 1×10^6 cells/mL in complete DMEM-5% FCS in 24-well microculture plates (1 mL/well) with antigenic peptide, followed by four washes with 10 volumes of DMEM-5% FCS. The cells were then exposed to varying concentrations of AE101 series peptide (64 μM, 16 μM, 4 μM, and 1 μM) for 24 h in the presence of the T cell hybridoma specific to the antigenic peptide. Interleukin release from these cultures was measured by proliferation of HT-2 cells to interleukins in supernatants transferred from the primary culture. Generally, a single dose of 64 μM of each AE101 series peptide was used. The baseline T cell response was measured by culturing T hybridoma cells with the antigenic peptide-prepulsed APC in the absence of AE101 series peptides.
[…] […] Paraformaldehyde-treated APC (fixed APC) expressing MHC class II molecules were incubated with antigenic peptide for 6 h (HEL106-116 for E^d and PGCC81-104 for E^k). After this incubation, the prepulsed APC were washed and cultured with T hybridoma cells and AE101 series peptides. […] The AE101 series peptide concentrations were 64 μM for E^d and 16 μM for E^k. The dilutions of supernatant taken into the HT-2 cell assay were 1:4 for Ed and 1:2 for E^k.

| Substance | Activity in antigenic peptide prepulse assay, E^d (baseline = 1.0) (Table 26, supernatant 1:2) | further results |
| --- | --- | --- |
| cyclic LRMKLPK (bridge (positions not given here); also: cyclic, ring type not given here) [AE381, “head-to-tail” cyclization from the amino-terminus to the carboxyl-terminus of AE114] | – | Activity in antigenic peptide prepulse assay, E^d (baseline = 1.0) (Table 28, supernatant 1:4): 0.19 |
| Ac-L[hArg]LKYPK-NH2 [AE361] | 0.83 | – |
| Ac-LRMKLPK (lactam 4-C) [AE382] | – | Activity in antigenic peptide prepulse assay, E^d (baseline = 1.0) (Table 28, supernatant 1:4): 0.52 |
| Ac-L[hArg]MKYPK-NH2 [AE360] | 0.91 | – |
| Ac-A[Cit]NKNPK-NH2 [AE351] | – | Activity in antigenic peptide prepulse assay, E^d (baseline = 1.00) (supernatant 1:4): 0.42 |
| Ac-LR HArg MYPK-NH2 [AE365] | 0.70 | – |
| Ac-LRMKNPF-NH2 [AE350] | – | Activity in antigenic peptide prepulse assay, E^d (baseline = 1.00) (supernatant 1:4): 0.82 |
| Ac-FK HArg MYP Cit-NH2 [AE371] | 0.90 | – |
| Ac-LRMMYP[Cit]-NH2 [AE367] | 1.10 | – |
| Ac-LRLKYPN-NH2 [AE368] | 0.55 | – |
| Ac-LR HArg KYP Cit-NH2 [AE366] | 0.44 | – |
| Ac-LRMKYP[Cit]-NH2 [AE364] | 0.34 | – |
| Ac-LR Orn K HArg PK-NH2 [AE340] | – | Activity in antigenic peptide prepulse assay, E^d (baseline = 1.00) (supernatant 1:4): 0.10 |
| Ac-LRMKYPN-NH2 [AE370] | 0.74 | – |
| Ac-LK HArg KYPK-NH2 [AE363] | 0.60 | – |
| Ac-LKMKYPK-NH2 [AE362] | 0.76 | – |
